# Measurements: patent US5208344A, “Naphthalenepropionic acid derivatives as anti-inflammatory/antiallergic agents” (American Home Products Corporation, priority 1991, dated 1993)
# Structures can show the parent of a compound that is named as a salt.
# Assays:
# cyclooxygenase = experiment: inhibition of synthesis of cyclooxygenase products TxB2 and PGE2 (rat polymorphonuclear leukocytes); assay type: cell-based; conditions: 10 μM; rat PMN; negative = potentiation of PGE2 synthesis
# Procedure, shortened: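 Glycogen-elicited peritoneal PMN from female Wistar rats, 2×10^7 cells/ml in HBSS with Ca^++, Mg^++ and 10 mM L-cysteine, preincubated with compound 10 min at 37° C. Stimulated 10 min with A23187 (10 μM) plus 0.5 μM [14C] arachidonic acid; TxB2 and PGE2 quantified by TLC, autoradiography and scintillation counting.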
# LTD4 = molecular target: T1, LTD4 (Cavia porcellus, UniProt Q2NNR5); experiment: LTD4 antagonist activity in isolated guinea pig trachea; assay type: cell-based; conditions: 1 × 10^-5 M
# T1 construct: isolated guinea pig trachea; from tissue; host or cells: guinea pig tracheal rings
# T1 sequence (Q2NNR5 1-340): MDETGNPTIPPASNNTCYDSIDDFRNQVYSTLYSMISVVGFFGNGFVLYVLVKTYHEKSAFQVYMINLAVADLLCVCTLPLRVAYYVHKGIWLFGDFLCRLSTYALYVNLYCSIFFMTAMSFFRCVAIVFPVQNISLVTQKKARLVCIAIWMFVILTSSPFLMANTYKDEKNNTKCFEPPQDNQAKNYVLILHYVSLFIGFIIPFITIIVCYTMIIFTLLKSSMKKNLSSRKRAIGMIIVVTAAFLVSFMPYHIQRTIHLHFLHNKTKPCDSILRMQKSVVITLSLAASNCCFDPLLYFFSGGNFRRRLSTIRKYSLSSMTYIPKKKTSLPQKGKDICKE
# Description: The LTD4 antagonist activity of the compounds of the invention is assessed in the in vitro isolated guinea pig trachea assay. Male Hartley guinea pigs (350-400 g) are euthanized by a blow to the head, the neck is opened and the trachea removed. The trachea is maintained in aerated physiological salt solution, cleared of connective tissue and fat and cut into rings approximately 2 mm in width (usually containing two cartilaginous segments per ring). Two pieces of silk suture are then passed through the lumen of the tracheal ring and are tied around the cartilage, one on each side of the trachealis muscle. The tracheal ring is suspended between a glass hook and a force displacement transducer in a 10 ml organ bath for measurement of isometric tension. Tissues are maintained at 37° C. in aerated ([…] /5% CO2) physiological salt solution of the following composition: […] The tracheal rings are maintained at 2 g resting tension and equilibrated for 45 minutes (with frequence washing and readjustment of resting tension). The tracheal rings are first contracted by the addition of carbachol (3×10^-6 M), to determine tissue responsiveness and establish a reference contraction. On attainment of a stable level of contraction (approximately 30 minutes), the tissues are washed several times until baseline tension has been restored and the re-equilibrated for 30 minutes. The tissues are then incubated for 45 minutes with a test antagonist (either 1×10^-6 M or 1×10^-5 M) or 10 μl of an appropriate solvent control (control, non-treated). One tissue in each group serves as the control. Twenty minutes prior to the construction of the LTD4 cumulative concentration-response curve, L-[…]×10^-2 M final bath concentration) is added to inhibit bioconversion of LTD4 to LTE4. Only one LTD4 concentration-response curve is constructed in each tissue. All responses to LTD4 in an individual tissue are measured as a percentage of the reference contraction of that tissue to carbachol. LTD4 antagonist activity is determined by comparison of the concentration response curves of LTD4 in the presence and absence of antagonist. Assessment of the relative rightward shift of the antagonist treated curve relative to the solvent (control) treated tissue is calculated as a concentration ratio (Eq. A) and used in subsequent calculations to derive an antagonist pKB value (Eqs. B and C). In the vent that the maximum response to LTD4 is depressed, the EC50 for that particular curve is determined, an "apparent" pKB reported, and the compound reported as "not-competitive." [formula] If a compound is found to be active and/or depress the maximal response to LTD4, then a range of concentrations of the test compound should be used generating multiple concentration ratios which would than be used to perform a Schild analysis, and determination of a pA2 value where appropriate.
Kb (LTD4) [nM],Structure (SMILES),% Inhibition of CO (as PGE2) (cyclooxygenase) [%]
631,"C[C@H](C(=O)O)c1ccc2cc(OCc3ccc4ccccc4n3)ccc2c1 [Example 17, S-(α)-α-Methyl-6-(2-quinolinylmethoxy)-2-naphthaleneacetic acid, tromethanime salt]",20
501,"C[C@H](C(=O)N(C)O)c1ccc2cc(OCc3ccc4ccccc4n3)ccc2c1 [Example 24, (S)-N-Hydroxy-α-N-dimethyl-6-(2-quinolinylmethoxy)-2-naphthaleneacetamide]",13
